Test results published in paper PMC12111648, “New Dimethoxyaryl-Sesquiterpene Derivatives with Cytotoxic Activity Against MCF-7 Breast Cancer Cells: From Synthesis to Topoisomerase I/II Inhibition and Cell Death Mechanism Studies” (International Journal of Molecular Sciences, 2025).

Molecular target: T1, human topoisomerase I (Homo sapiens, UniProt P11387)
T1 construct: purchased Sigma-Aldrich (St. Louis, MO, USA)
T1 sequence (P11387 1-765): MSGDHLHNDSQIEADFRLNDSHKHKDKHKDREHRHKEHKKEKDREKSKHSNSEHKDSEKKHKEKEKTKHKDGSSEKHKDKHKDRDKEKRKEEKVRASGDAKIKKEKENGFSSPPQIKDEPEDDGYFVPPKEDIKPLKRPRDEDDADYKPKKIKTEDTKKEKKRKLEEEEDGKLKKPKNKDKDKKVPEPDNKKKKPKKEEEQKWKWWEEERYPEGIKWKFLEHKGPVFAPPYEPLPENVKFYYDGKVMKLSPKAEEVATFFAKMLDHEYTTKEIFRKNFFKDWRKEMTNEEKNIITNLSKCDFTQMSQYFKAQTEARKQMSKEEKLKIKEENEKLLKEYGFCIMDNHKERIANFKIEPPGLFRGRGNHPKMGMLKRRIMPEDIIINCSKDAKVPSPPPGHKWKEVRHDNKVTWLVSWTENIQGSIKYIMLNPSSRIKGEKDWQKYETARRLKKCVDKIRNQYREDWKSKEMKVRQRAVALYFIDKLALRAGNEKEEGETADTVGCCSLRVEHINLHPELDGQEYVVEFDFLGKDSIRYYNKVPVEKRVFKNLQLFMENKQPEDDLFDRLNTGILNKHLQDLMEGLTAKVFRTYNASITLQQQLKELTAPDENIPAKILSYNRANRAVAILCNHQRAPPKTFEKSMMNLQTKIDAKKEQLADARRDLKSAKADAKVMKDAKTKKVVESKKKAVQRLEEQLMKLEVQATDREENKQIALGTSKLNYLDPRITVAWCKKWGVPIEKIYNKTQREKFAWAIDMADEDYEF
Experiment: TOP1 DNA relaxation assay
Type: biochemical
Details: 20 μM
Method: The ability to relax DNA conformations is a central function of topoisomerase enzymes. Several studies have associated some proapoptotic compounds with the ability to inhibit topoisomerase enzymes. The ability of the selected compounds to inhibit TOP1 or TOP2 activity was determined. In this experiment, daunorubicin was used as a positive control for TOP1/2 inhibition, as previously reported. […] It is important to note the potential for cardiotoxicity associated with some TOP2 inhibitors, which highlights the relevance of assessing compound 14c’s interaction with TOP2B. […] Future studies should include assays to evaluate the specific activity of 14c against both TOP2A and TOP2B to provide a more comprehensive safety profile, as isoform-selective TOP2 inhibitors may offer a therapeutic advantage by reducing adverse effects.
TOP1 activity was assayed by the relaxation of supercoiled DNA (pEGFP-N1) as the manufacturer’s instructions indicated. Briefly, human recombinant TOP1 and buffer assay were obtained from Sigma-Aldrich (St. Louis, MO, USA). […]
Figure 7 The effect of sesquiterpene aryl esters on TOP1- and TOP2-induced DNA relaxation was assessed. (A) The TOP1 inhibition assay evaluated the compounds (10c, 11c, 12c, 13c, and 14c) at a concentration of 20 μM in a DNA relaxation assay. […]

With `COc1cc2c(cc1OC)[C@]1(C)CCC3C(C)(C)CCC[C@]3(C)C1=C2` (stereo partly drawn) [Compound 14c, (6aR,11bS)-8,9-Dimethoxy-4,4,6a,11b-tetramethyl-2,3,4,4a,5,6,6a,11b-octahydro-1H-benzo[a]fluorene] the “inhibition of TOP1-induced DNA relaxation” value was “did not show significant inhibition”.
